{
  "source": "paper PMC6304572",
  "about": "“Simultaneous Evaluation of the Influence of Panax ginseng on the Pharmacokinetics of Three Diester Alkaloids after Oral Administration of Aconiti Lateralis Radix in Rats Using UHPLC/QQQ-MS/MS” (Evidence-based Complementary and Alternative Medicine : eCAM, 2018)",
  "key": {"[1]": {"assay": "Pharmacokinetics of three diester alkaloids in rat plasma after oral Aconiti Lateralis Radix extract, with or without 7-day P. ginseng pretreatment", "format": "in vivo, Sprague-Dawley rats", "settings": "oral Aconiti Lateralis Radix extract 1 g/kg on 8th day", "description": "Rats were randomly divided into 4 groups: control group, P. ginseng (low, middle, and high) group. 7 days of oral administration of P. ginseng extract was administered at a dosage of 0.1, 1, 10 g/kg for P. ginseng group (low, middle, and high), respectively, once daily. Distilled water was administered at a dosage of 2 ml/kg for control group, simultaneously. On the 8th day, Aconiti Lateralis Radix extracts (1 g/kg) were orally administered to all groups. 0.5 ml plasma samples were collected in 1.5 ml centrifuge tubes (containing heparin sodium) at 10, 30, 60, 90, 120, 240, 480, 720, 1440, and 2880 min. All plasma samples were centrifuged for 15 min at 4000g. The supernatant was separated to another 1.5 ml centrifuge tubes and stored at -20°C.\nLiquid-liquid extraction (ethyl acetate) and protein precipitation (50% acetonitrile plus 50% methanol) methods were compared to determine the best method to prepare the plasma sample. Liquid-liquid extraction method was chosen, due to reproducibly high recovery rates. The details of the extraction are as follows: 10 μL carbamazepine (IS) was added to 90 μL plasma, spiked with 400 μL ethyl acetate and the mixture vortexed for 15 seconds. After centrifugation at 12,000g for 10 min, the supernatant was transferred to another 1.5 mL centrifuge tube and dried under a stream of nitrogen at 37°C. The residue was redissolved in 100 μL 50% acetonitrile and centrifuged at 12,000g for 10 min and filtered through a 0.22 μm Micropore membrane. A 5 μL volume of supernatant was injected into LC-MS system for analysis.\nXevo TQ-S (Waters, USA) was utilized for the analysis of all biological samples. Chromatographic separation was conducted on Waters ACQUITY UPLC HSS T3 1.8 μm column (2.1 mm × 100 mm). Column temperature was 45°C and the flow rate was 0.5ml/min. Room temperature was 20 ± 2°C. Phase A consisted of water and 0.1% formic acid (v/v), and phase B consisted of acetonitrile (ACN) 0.1% formic acid (v/v). Column separation was performed by gradient elution: 0-0.5 min, 10% B; 1-2 min, 90% B; 4 min, 10% B.\nElectrospray ionization (ESI) and positive ion V mode were used to determine the samples. The main parameters for mass spectrum were set as follows: capillary voltage: 3.5 kv; sample cone: 60 v; source offset: 50 v; source temperature: 150°C; desolvation temperature: 350°C; cone gas flow: 150 L/h; desolvation gas flow: 650 L/h; injection volume: 5 μL.\nThe data was acquired and analyzed by XEVO-QT-S (Waters). The pharmacokinetic parameters were analyzed by DAS pharmacokinetic program (Version 2.0). SAS statistical software was used to determine the difference between each group. All data was presented as mean ± SD, and P<0.05 was considered statistically significant."}, "[2]": {"assay": "Stability of the three alkaloids in rat plasma QC samples (4°C, room temperature, freeze-thaw)", "format": "in vitro ADME", "settings": "for Freeze-thaw Accuracy: freeze-thaw three times; for Room temperature stability (24 h) Accuracy: room temperature (about 25°C)", "description": "Plasma from rats without any processing was used to evaluate the detection methods. 0.1, 0.25, 0.5, 1, 2.5, 5, 10 ng/ml were chosen to calculate standards curve. 0.1, 0.4, 4, 8 ng/mL were selected as the QC sample (n = 4) with repeated operations used to calculate accuracy and precision of the detection method. The data was acquired after keeping the samples at either +4°C 24 hours or room temperature (about 25°C) for 24 hours as well as using freeze-thaw methods (three times) to evaluate stability. Recovery of the developed methods was calculated by the following formula: recovery = measured value/ theoretical value × 100%."}, "[3]": {"settings": "P. ginseng-high (10 g/kg oral, 7 days)"}, "[4]": {"settings": "P. ginseng-low (0.1 g/kg oral, 7 days)"}, "[5]": {"settings": "P. ginseng-middle (1 g/kg oral, 7 days)"}, "[6]": {"settings": "control group (distilled water 7 days)"}},
  "data": [
    {"compound": "COC[C@]12CN(C)[C@@H]3[C@@H]4[C@H](OC)[C@H]1[C@@]3([C@@H](OC)C[C@H]2O)[C@@H]1C[C@@]2(O)[C@H](OC(=O)c3ccccc3)[C@@H]1[C@]4(OC(C)=O)[C@@H](O)[C@@H]2OC", "note": "[Mesaconitine]", "values": [
      {"measurement": "AUC(0-t)", "setting": "[1]; [3]", "value": "126.07 ± 44.93^∗∗ μg/L∗h"},
      {"measurement": "AUC(0-∞)", "setting": "[1]; [3]", "value": "138.96 ± 55.36^∗∗ μg/L∗h"},
      {"measurement": "CLz/F", "setting": "[1]; [3]", "value": "81.37 ± 29.62^∗∗ L/h/Kg"},
      {"measurement": "Cmax", "setting": "[1]; [3]", "value": "8.94 ± 2.33^∗ μg/L"},
      {"measurement": "Tmax", "setting": "[1]; [3]", "value": "2.20 ± 1.98", "unit": "h"},
      {"measurement": "Vz/F", "setting": "[1]; [3]", "value": "1395.19 ± 472.75^∗∗ L/kg"},
      {"measurement": "t1/2z", "setting": "[1]; [3]", "value": "12.56 ± 4.48", "unit": "h"},
      {"measurement": "AUC(0-t)", "setting": "[1]; P. ginseng-high (10 g/kg oral, 7 days), listed as mesaconitine", "value": "126.07 ± 44.93", "unit": "μg/L∗h"},
      {"measurement": "AUC(0-t)", "setting": "[1]; [4]", "value": "65.53 ± 9.06", "unit": "μg/L∗h"},
      {"measurement": "AUC(0-∞)", "setting": "[1]; [4]", "value": "71.36 ± 12.85", "unit": "μg/L∗h"},
      {"measurement": "CLz/F", "setting": "[1]; [4]", "value": "144.13 ± 26.77", "unit": "L/h/kg"},
      {"measurement": "Cmax", "setting": "[1]; [4]", "value": "4.66 ± 1.03", "unit": "µg/L"},
      {"measurement": "Tmax", "setting": "[1]; [4]", "value": "0.89 ± 0.60", "unit": "h"},
      {"measurement": "Vz/F", "setting": "[1]; [4]", "value": "2386.47 ± 832.39", "unit": "L/kg"},
      {"measurement": "t1/2z", "setting": "[1]; [4]", "value": "12.12 ± 6.11", "unit": "h"},
      {"measurement": "AUC(0-t)", "setting": "[1]; [5]", "value": "82.45 ± 18.57^∗ μg/L∗h"},
      {"measurement": "AUC(0-∞)", "setting": "[1]; [5]", "value": "87.1 ± 21.80^∗ μg/L∗h"},
      {"measurement": "CLz/F", "setting": "[1]; [5]", "value": "120.75 ± 29.09^∗ L/h/Kg"},
      {"measurement": "Cmax", "setting": "[1]; [5]", "value": "6.02 ± 1.63", "unit": "µg/L"},
      {"measurement": "Tmax", "setting": "[1]; [5]", "value": "1.83 ± 1.21", "unit": "h"},
      {"measurement": "Vz/F", "setting": "[1]; [5]", "value": "1745.91 ± 488.37^∗ L/kg"},
      {"measurement": "t1/2z", "setting": "[1]; [5]", "value": "10.31 ± 3.00", "unit": "h"},
      {"measurement": "AUC(0-t)", "setting": "[1]; P. ginseng-middle (1 g/kg oral, 7 days), listed as mesaconitine", "value": "82.45 ± 18.57", "unit": "μg/L∗h"},
      {"measurement": "AUC(0-t)", "setting": "[1]; [6]", "value": "51.24 ± 21.48", "unit": "μg/L∗h"},
      {"measurement": "AUC(0-∞)", "setting": "[1]; [6]", "value": "58.66 ± 27.59", "unit": "μg/L∗h"},
      {"measurement": "CLz/F", "setting": "[1]; [6]", "value": "217.47 ± 130.54", "unit": "L/h/kg"},
      {"measurement": "Cmax", "setting": "[1]; [6]", "value": "5.48 ± 2.61", "unit": "µg/L"},
      {"measurement": "Tmax", "setting": "[1]; [6]", "value": "1.58 ± 1.32", "unit": "h"},
      {"measurement": "Vz/F", "setting": "[1]; [6]", "value": "3146.87 ± 1886.84", "unit": "L/kg"},
      {"measurement": "t1/2z", "setting": "[1]; [6]", "value": "13.17 ± 10.45", "unit": "h"},
      {"measurement": "4°C temperature stability (24 h) Accuracy", "setting": "[2]; QC conc. 0.40 ng/mL", "value": "100.28 ± 8.73", "unit": "%"},
      {"measurement": "Freeze-thaw Accuracy", "setting": "[2]; QC conc. 0.40 ng/mL", "value": "95.09 ± 7.31", "unit": "%"},
      {"measurement": "Room temperature stability (24 h) Accuracy", "setting": "[2]; QC conc. 0.40 ng/mL", "value": "96.34 ± 6.95", "unit": "%"},
      {"measurement": "4°C temperature stability (24 h) Accuracy", "setting": "[2]; QC conc. 4.00 ng/mL", "value": "97.02 ± 9.18", "unit": "%"},
      {"measurement": "Freeze-thaw Accuracy", "setting": "[2]; QC conc. 4.00 ng/mL", "value": "100.37 ± 8.92", "unit": "%"},
      {"measurement": "Room temperature stability (24 h) Accuracy", "setting": "[2]; QC conc. 4.00 ng/mL", "value": "93.68 ± 2.77", "unit": "%"},
      {"measurement": "4°C temperature stability (24 h) Accuracy", "setting": "[2]; QC conc. 8.00 ng/mL", "value": "99.43 ± 4.57", "unit": "%"},
      {"measurement": "Freeze-thaw Accuracy", "setting": "[2]; QC conc. 8.00 ng/mL", "value": "99.59 ± 3.35", "unit": "%"},
      {"measurement": "Room temperature stability (24 h) Accuracy", "setting": "[2]; QC conc. 8.00 ng/mL", "value": "100.72 ± 4.78", "unit": "%"}
    ]}
  ]
}
